Experimental data: US7160902B2, “Amide derivatives and methods of their use” (Adolor Corporation, priority 2003, dated 2007)

Key:
[1] = molecular target: T1, cloned human κ opioid receptor (Homo sapiens, UniProt P41145); assay: In vitro binding assay, inhibition of [3H]diprenorphine binding, κ receptor; conditions: [3H]diprenorphine displacement; read-out: Ki against the human κ receptor
T1 construct: expressed in transfected cells
Method: (§1) The potencies of the compounds of the invention were determined by testing the ability of a range of concentrations of each compound to inhibit the binding of the non-selective opioid antagonist, [^3H]diprenorphine, to the cloned human μ, κ, and δ opioid receptors, expressed in separate cell lines. IC50 values were obtained by nonlinear analysis of the data using GraphPad Prism version 3.00 for Windows (GraphPad Software, San Diego). Ki values were obtained by Cheng-Prusoff corrections of IC50 values.
(§2) The receptor binding method was a modification of the method of K. Raynor et al. (Mol. Pharmacol. 1994, 45, 330–334). […] The filters were rinsed 4 times with 1 mL of cold 50 mM Tris HCl, pH 7.8 and radioactivity remaining on the filters determined by scintillation spectroscopy. Nonspecific binding was determined by the minimum values of the titration curves and was confirmed by separate assay wells containing 10 μM naloxone. Ki values were determined by Cheng-Prusoff corrections of IC50 values derived from nonlinear regression fits of 12 point titration curves using GraphPad Prism® version 3.00 for Windows (GraphPad Software, San Diego, Calif.).
(§3) To determine the equilibrium dissociation constant for the inhibitors (Ki), radioligand bound (cpm) in the presence of various concentrations of test compounds was measured. […]

[2] = molecular target: T2, cloned human μ opioid receptor (Homo sapiens, UniProt P35372); assay: In vitro binding assay, inhibition of [3H]diprenorphine binding, μ receptor; conditions: κ versus μ
T2 construct: expressed in transfected cells
T2 sequence (P35372 whole entry): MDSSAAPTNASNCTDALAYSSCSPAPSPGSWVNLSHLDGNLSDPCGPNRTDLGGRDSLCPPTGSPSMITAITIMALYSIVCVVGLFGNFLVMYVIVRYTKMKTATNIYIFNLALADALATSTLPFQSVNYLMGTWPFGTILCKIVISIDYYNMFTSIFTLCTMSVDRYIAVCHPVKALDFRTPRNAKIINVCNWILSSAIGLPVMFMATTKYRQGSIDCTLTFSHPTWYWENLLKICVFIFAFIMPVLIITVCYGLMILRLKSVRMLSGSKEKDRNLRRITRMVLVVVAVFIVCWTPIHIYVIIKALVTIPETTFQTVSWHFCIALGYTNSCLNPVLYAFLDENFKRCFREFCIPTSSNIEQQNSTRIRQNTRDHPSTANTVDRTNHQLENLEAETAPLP
Method: as §1, §2, §3

[3] = molecular target: T3, cloned human δ opioid receptor (Homo sapiens, UniProt P41143); assay: In vitro binding assay, inhibition of [3H]diprenorphine binding, δ receptor; conditions: κ versus δ
T3 construct: expressed in transfected cells
T3 sequence (P41143 whole entry): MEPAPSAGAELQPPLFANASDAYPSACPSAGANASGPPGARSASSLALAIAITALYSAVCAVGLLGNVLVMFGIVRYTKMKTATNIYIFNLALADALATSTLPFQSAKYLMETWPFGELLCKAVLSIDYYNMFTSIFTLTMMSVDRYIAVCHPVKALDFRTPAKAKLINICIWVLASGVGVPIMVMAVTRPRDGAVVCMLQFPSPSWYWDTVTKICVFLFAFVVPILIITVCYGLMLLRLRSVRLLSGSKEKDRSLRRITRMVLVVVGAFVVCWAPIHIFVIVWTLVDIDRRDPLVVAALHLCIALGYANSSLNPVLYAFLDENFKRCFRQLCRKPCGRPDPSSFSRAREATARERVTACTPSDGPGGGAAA
Method: as §1, §2, §3

cloned human κ receptors = molecular target: T4, cloned human κ receptors (Homo sapiens, UniProt P41145); assay: Stimulation of [35S]GTPγS binding to membranes; type: biochemical
T4 construct: expressed in transfected cells
T4 sequence (P41145 whole entry): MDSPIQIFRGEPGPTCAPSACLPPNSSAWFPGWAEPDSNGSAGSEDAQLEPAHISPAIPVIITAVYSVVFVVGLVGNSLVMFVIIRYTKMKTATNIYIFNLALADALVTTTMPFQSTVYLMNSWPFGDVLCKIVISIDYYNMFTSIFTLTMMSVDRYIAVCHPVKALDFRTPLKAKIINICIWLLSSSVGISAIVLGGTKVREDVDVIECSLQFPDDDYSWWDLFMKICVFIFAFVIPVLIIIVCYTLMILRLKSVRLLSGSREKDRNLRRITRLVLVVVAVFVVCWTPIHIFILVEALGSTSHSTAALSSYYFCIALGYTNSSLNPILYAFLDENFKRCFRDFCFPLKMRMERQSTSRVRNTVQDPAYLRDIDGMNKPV
Method: The potencies of the agonists were assessed by their abilities to stimulate [^35S]GTPγS binding to membranes containing the cloned human κ receptors.
To determine the EC50 value, which was the concentration to give half-maximal stimulation of [^35S]GTPγS binding, the amount of [^35S]GTPγS bound in the presence of various concentrations of agonists was measured. The EC50 value was then determined.

[4] = tested on: formalin-induced flinching; assay: In vivo formalin-induced nociception assay; parameters: species or system male Sprague-Dawley rats; conditions: dose of 300 μg, i.paw
Text: Administration of formalin into the paw results in a localized inflammation and a pain response that is moderate in intensity and continuous in duration. Unlike many other assays of nociception, the formalin assay measures tonic pain that is a result of tissue injury, and therefore is a model that is more relevant to clinical pain states in humans (See Tjolsen et al., Pain 51: 5–17, 1992). In the rat the response to formalin-induced pain consists of spontaneous flinching behavior, characterized by paw lifting and paw shaking, and a rapid vibration of the paw after drawing it under the body. […] The early or acute phase lasts from 0–5 minutes post-formalin and is followed by a quiescent period lasting approximately 15 minutes. The tonic phase occurs from 20–35 minutes following formalin injection and is the interval where the number of flinching responses is maximal. […]
Inflammation is induced by subcutaneous injection of […] of a 5% formalin solution into the dorsal surface of the right hind paw of male Sprague-Dawley rats weighing 70–90 g. Injections of drug are given into the dorsal surface of the paw prior to formalin injection, and flinching behavior is quantified by counting the number of responses that occur during the tonic phase of pain, lasting from 20–35 minutes after formalin injection. […]

[5] = tested on: acetic acid-induced writhing; assay: Acetic acid-induced writhing; type: in vivo, male CF-1 mice; conditions: Mus musculus, sc; administered subcutaneously; read-out: ED50, blocking of acetic acid-induced writhing
Method: Injection of acetic acid into the peritoneal cavity is used as the noxious stimulus, and the number of writhing responses that occur in response to acetic acid are counted in order to quantify the response to pain.
The writhing assay is adapted from the procedure originally described by Taber, et al. (J. Pharmacol. Exp. Ther. 169: 29–38, 1986), using male CF-1 mice weighing 20–25 g. Animals are treated with various doses of drugs prior to the administration of an i.p. injection of 0.6% acetic acid solution. Mice are then placed into observation chambers and the number of writhing responses, as defined by a full hind limb extension and retraction, are recorded.
The mean number of writhing responses is calculated for vehicle-treated control mice, and the percent inhibition (% I) of writhing is calculated for each mouse that is treated with drug using the following formula: % I=100×(mean control writhing responses−individual test responses)(mean control writhing responses) (f) Hyperalgesia Induced by Tape Stripping

T1 sequence (P41145 whole entry): as above

CN(C(=O)CNc1ccccc1)[C@H](CN1CC[C@H](O)C1)c1ccccc1 [Example 1, N-{2-[(S)-3-Hydroxy-pyrrolidin-1-yl]-(S)-1-phenyl-ethyl}-N-methyl-2-phenylamino-acetamide]
Ki [1]: 170 pM | selectivity versus the human μ receptor [2]: > 100 × | selectivity versus the human δ receptor [3]: > 100 × | functional activity at κ receptor (cloned human κ receptors): agonist | EC50 (cloned human κ receptors; half-maximal stimulation of [35S]GTPγS binding, read-out: EC50 (agonist)): 50 pM | % A (percent antagonism of formalin-induced flinching) [4]: 96.2% | ED50 [5]: 0.017 mg/kg
